Results from publication PMC8301776, “New Hybrid Compounds Combining Fragments of Usnic Acid and Monoterpenoids for Effective Tyrosyl-DNA Phosphodiesterase 1 Inhibition” (Biomolecules, 2021).
Entries after “also recorded” stand apart in the source; their conditions may differ.

Key:
[1] = system: Lewis lung carcinoma; settings: mice with Lewis lung carcinoma; various administration schedules; cited from earlier work
[2] = system: HeLa cells; assay: Intrinsic cytotoxicity, EZ4U colorimetric test, HeLa; assay type: cell-based, human; settings: Figure 6
Protocol: (§1) Cytotoxicity of the compounds was examined against human cell lines HEK293A (human embryonic kidney)—WT and TDP1-deficient (Tdp1-/-), and HeLa (cervical cancer) using an EZ4U colorimetric tests (Biomedica, Vienna, Austria) or xCELLigence DP Real-Time Cell Analyzer (ACEA Biosciences, Santa Clara, CA, USA). Cell lines were obtained from the Russian Cell Culture Collection (RCCC) Institute of Cytology RAS (St. Petersburg, Russia). The cells were grown in DMEM/F12 medium (Thermo Fisher Scientific, Waltham, MA, USA), with 1× GlutaMAX (Thermo Fisher Scientific, Waltham, MA, USA), 50 IU/mL penicillin, and 50 μg/mL streptomycin (Thermo Fisher Scientific, Waltham, MA, USA), and in the presence of 10% fetal bovine serum (Biolot, Saint-Petersburg, Russia) in 5% CO2 atmosphere. Control cells were grown in the presence of 1% DMSO where indicated. After formation of a 30–50% monolayer, tested compounds were added to the medium, and the cell culture was monitored for 3 days. […] The measurements were carried out in three parallel experiments.
(§2) The intrinsic cytotoxicity of the four lead compounds (11a–d) was examined using a colorimetric test (Figure 6).

[3] = system: HEK293A WT cells; assay: xCELLigence impedance-based real-time cell growth assay, alone or with Tpc; set-up: species or system human; settings: for effect on cell growth with Tpc, compared to Tpc: 50 nM Tpc + 5, 10, 20 or 40 µM compound; for toxicity of compound alone (in words): 40 µM compound
Protocol: as §1
This stimulation was also confirmed for HEK293A WT cells using the xCELLigence DP Real-Time Cell Analyzer impedance-based assay (Figure 9). […] The stimulation effect depends on the concentration of compounds 11a and 11c (Figure 9B,C).
(A). Cell growth of HEK293A cells in the control wells without compounds added (black), with 50 nM Tpc (red), 40 µM 11a (dark green), or 40 µ M 11c (violet). (B,C) Cell growth of HEK293A cells with 50 nM Tpc only (red) and in combination with 5 µM (green), 10 µM (dark blue), 20 µM (pink), or 40 µM (blue) 11a (B) or 11c (C).

[4] = system: HeLa cells; assay: Topotecan cytotoxicity in combination with TDP1 inhibitors, colorimetric test, HeLa; assay type: cell-based, human
Protocol: as §1
The combination index (CI) values were determined for different concentrations of Tpc and the enamines 11a–d at 2 and 5 μM. […] The CI values were calculated with the CompuSyn version 1.0 software. The CI plot at different fraction-affected (Fa) was determined for Tpc (0.3, 0.5, 1, 2, and 4 μM) and the Tdp1 inhibitors (2 and 5 μM).

[5] = system: HEK293A WT cells; assay: Topotecan cytotoxicity in combination with TDP1 inhibitors, colorimetric test, HEK293A WT; assay type: cell-based, human
Protocol: as §1
There was no difference between WT and the mutant cells.

[6] = biological target: T1, TDP1 (Homo sapiens, UniProt Q9NUW8); assay: Real-time fluorescence detection of TDP1 activity (FAM/BHQ1 oligonucleotide biosensor); assay type: biochemical; settings: as repeated in Table S1; read-out: IC50
T1 construct: made in house; host or cells: E. coli

[7] = system: HEK293A cells; assay: Intrinsic cytotoxicity, EZ4U colorimetric test, HEK293A; assay type: cell-based, human; settings: Figure 6
Protocol: as §1, §2

[8] = system: HEK293A TDP1-/- cells; assay: Topotecan cytotoxicity alone or in combination, colorimetric test, HEK293A TDP1-/- clones C6, G6, F7; assay type: cell-based, human; settings: for effect on cell growth in combination with Tpc, compared to Tpc (in words): HEK293A Tdp1-/- cells
From the text: TDP1 knockout HEK293A clones were obtained in the same way as the previously described TDP1 knockout HEK293FT clones. Briefly, two 20-nt protospacer sequences flanking the first protein coding exon of human TDP1 gene were selected using https://www.benchling.com/ (accessed date 1 November 2020). Oligonucleotides were cloned in plasmid pSpCas9(BB)-2A-GFP (PX458). pSpCas9(BB)-2A-GFP (PX458) was a gift from Feng Zhang (Addgene plasmid # 48138; http://n2t.net/addgene:48138; RRID: Addgene_48138). HEK293A cells were transfected with plasmids pX458-TDP1-gRNA1 and pX458-TDP1-gRNA2 (0.25 µg of each) using Lipofectamine 3000 Reagent (Thermofisher Scientific, Waltham, MA, USA). Growth medium contained DMEM/F12 (Thermofisher Scientific, Waltham, MA, USA) 1:1, 10% FBS (Thermofisher Scientific, Waltham, MA, USA), 100 U/mL penicillin–streptomycin (Thermofisher Scientific, Waltham, MA, USA), and 1 × GlutaMAX (Thermofisher Scientific, Waltham, MA, USA). […] Single cell clones grew for two weeks, and genome DNA was analyzed on CRISPR/Cas9-mediated deletions in TDP1 gene by PCR amplification of target region with primers: TDP1-scF 5′-[…]-3′ and TDP1-scR 5′-[…]-3′. […]
Cytotoxicity of the compounds was examined against human cell lines HEK293A (human embryonic kidney)—WT and TDP1-deficient (Tdp1-/-), and HeLa (cervical cancer) using an EZ4U colorimetric tests (Biomedica, Vienna, Austria) or xCELLigence DP Real-Time Cell Analyzer (ACEA Biosciences, Santa Clara, CA, USA). […] After formation of a 30–50% monolayer, tested compounds were added to the medium, and the cell culture was monitored for 3 days. […]
In our previous work, the cytotoxic effect of Tpc and the TDP1 inhibitors, monoterpene 3-carene derivatives, was established; both were measured separately and jointly using a panel of HEK293FT TDP1 knockout isogenic clones. […] No cleavage activity was detected in the clones’ C6, G6, and F7 cell extracts in contrast to control WT and purified TDP1. […]

[9] = system: Krebs 2 ascites tumors; set-up: method as in PMID 33871444; settings: Krebs 2 ascites tumors in mice; cited from earlier work

T1 sequence (Q9NUW8 whole entry): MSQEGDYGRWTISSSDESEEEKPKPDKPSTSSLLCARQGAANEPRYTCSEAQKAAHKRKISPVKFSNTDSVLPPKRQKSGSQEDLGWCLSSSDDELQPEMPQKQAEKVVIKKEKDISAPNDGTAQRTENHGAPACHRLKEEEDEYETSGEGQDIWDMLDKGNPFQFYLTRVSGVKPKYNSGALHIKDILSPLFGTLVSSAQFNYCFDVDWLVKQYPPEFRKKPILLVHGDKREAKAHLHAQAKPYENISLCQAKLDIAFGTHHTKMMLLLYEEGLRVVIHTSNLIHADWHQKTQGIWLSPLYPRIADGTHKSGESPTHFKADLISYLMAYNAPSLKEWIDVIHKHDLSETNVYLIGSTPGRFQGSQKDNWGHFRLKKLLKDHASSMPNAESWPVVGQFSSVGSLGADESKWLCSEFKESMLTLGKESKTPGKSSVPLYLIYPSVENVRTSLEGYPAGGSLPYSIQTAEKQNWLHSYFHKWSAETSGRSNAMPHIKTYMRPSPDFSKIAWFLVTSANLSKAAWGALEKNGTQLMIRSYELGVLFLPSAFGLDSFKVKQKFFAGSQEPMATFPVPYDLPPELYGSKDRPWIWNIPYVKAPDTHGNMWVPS

SMILES: CC(=O)c1c(O)c(C)c(O)c2c1OC1=CC(=O)/C(=C(/C)NCCCc3cc(C(C)(C)C)c(O)c(C(C)(C)C)c3)C(=O)[C@@]12C [5b]
- antimetastatic activity [1]: strong antimetastatic activity

SMILES: CC(=O)c1c(O)c(C)c(O)c2c1OC1=CC(=O)/C(=C(/C)NCC[C@@H](C)CCC=C(C)C)C(=O)[C@@]12C [11a, (2R,4E)-10-Acetyl-4-(1-{[(3S)-3,7-dimethyloct-6-en-1-yl]amino}ethylidene)-11,13-dihydroxy-2,12-dimethyl-8-oxatricyclo[7.4.0.0^2,7]trideca-1(13),6,9,11-tetraene-3,5-dione]
- intrinsic cytotoxicity (in words) [2]: non-cytotoxic
- effect on cell growth with Tpc, compared to Tpc [3]: stimulated cell growth
- toxicity of compound alone (in words) [3]: modestly toxic
- effect on Tpc cytotoxicity (in words) [4]: enhanced topotecan’s cytotoxicity; also recorded: synergistic effect; also recorded: enhanced Tpc cytotoxicity
- effect on Tpc cytotoxicity / cell growth, compared to Tpc (in words) [5]: reduced it; also recorded: stimulation of cell growth; also recorded: stimulated cell growth
- IC50 [6]: 400 nM
- intrinsic cytotoxicity (in words) [7]: non-cytotoxic
- effect on cell growth in combination with Tpc, compared to Tpc (in words) [8]: stimulation of cell growth

SMILES: CC(=O)c1c(O)c(C)c(O)c2c1OC1=CC(=O)/C(=C(/C)NCCC3=CC[C@H]4C[C@@H]3C4(C)C)C(=O)[C@@]12C [11c, (2R,4E)-10-Acetyl-4-[1-({2-[(1R,5S)-6,6-dimethylbicyclo[3.1.1]hept-2-en-2-yl]ethyl}amino)ethylidene]-11,13-dihydroxy-2,12-dimethyl-8-oxatricyclo[7.4.0.0^2,7]trideca-1(13),6,9,11-tetraene-3,5-dione]
- intrinsic cytotoxicity (in words) [2]: non-cytotoxic
- effect on cell growth with Tpc, compared to Tpc [3]: stimulated cell growth
- toxicity of compound alone (in words) [3]: non-toxic
- effect on Tpc cytotoxicity (in words) [4]: enhanced topotecan’s cytotoxicity; also recorded: synergistic effect; also recorded: enhanced Tpc cytotoxicity
- effect on Tpc cytotoxicity / cell growth, compared to Tpc (in words) [5]: reduced it; also recorded: stimulation of cell growth; also recorded: stimulated cell growth
- IC50 [6]: 320 nM
- intrinsic cytotoxicity (in words) [7]: non-cytotoxic
- effect on cell growth in combination with Tpc, compared to Tpc (in words) [8]: stimulation of cell growth

SMILES: CC[C@@]1(O)C(=O)OCc2c1cc1n(c2=O)Cc2cc3c(CN(C)C)c(O)ccc3nc2-1 [Tpc, topotecan, reference compound]
- antitumor effect, given separately [9]: antitumor effect
- sensitivity of TDP1-/- cells to Tpc compared to WT ([8]; HEK293A clones C6, G6, F7 vs WT, colorimetric test): more sensitive to Tpc compared to WT
